# Experimental data published in PubChem BioAssay (NCI).
#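 Five concentrations, 48 hours, 96-well plates. TGI: concentration producing complete growth inhibition.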
# Columns and labels:
# Experiment in all cases: NCI tumour cell line growth inhibition, 48 h
# HT29 colon = tested on: HT29 colon
# SNB-78 CNS = tested on: SNB-78 CNS
# COLO 205 colon = tested on: COLO 205 colon
# NCI-H460 lung = tested on: NCI-H460 lung
# IGROV1 ovarian = tested on: IGROV1 ovarian
# SK-MEL-28 melanoma = tested on: SK-MEL-28 melanoma
# DU-145 prostate = tested on: DU-145 prostate
# OVCAR-3 ovarian = tested on: OVCAR-3 ovarian
# 786-0 renal = tested on: 786-0 renal
# RXF 393 renal = tested on: RXF 393 renal
# T-47D breast = tested on: T-47D breast
# DMS 273 small cell lung = tested on: DMS 273 small cell lung
# DMS 114 small cell lung = tested on: DMS 114 small cell lung
# DLD-1 colon = tested on: DLD-1 colon
# A498 renal = tested on: A498 renal
# A549 NSCLC = tested on: A549 NSCLC
# U251 CNS = tested on: U251 CNS
# M14 melanoma = tested on: M14 melanoma
# SNB-75 CNS = tested on: SNB-75 CNS
# MALME-3M melanoma = tested on: MALME-3M melanoma
# SR leukemia = tested on: SR leukemia
# HCC-2998 colon = tested on: HCC-2998 colon
# NCI-H226 lung = tested on: NCI-H226 lung
# HS 578T breast = tested on: HS 578T breast
# MCF7 breast = tested on: MCF7 breast
# LXFL 529 NSCLC = tested on: LXFL 529 NSCLC
# HCT-15 colon = tested on: HCT-15 colon
# SN12C renal = tested on: SN12C renal
# OVCAR-8 ovarian = tested on: OVCAR-8 ovarian
# NCI-H522 lung = tested on: NCI-H522 lung
# HOP-92 NSCLC = tested on: HOP-92 NSCLC
# HOP-62 NSCLC = tested on: HOP-62 NSCLC
# HOP-18 NSCLC = tested on: HOP-18 NSCLC
# CCRF-CEM leukemia = tested on: CCRF-CEM leukemia
# NCI-H23 lung = tested on: NCI-H23 lung
# M19-MEL melanoma = tested on: M19-MEL melanoma
# SF-268 CNS = tested on: SF-268 CNS
# TK-10 renal = tested on: TK-10 renal
# RXF-631 renal = tested on: RXF-631 renal
# MDA-MB-435 = tested on: MDA-MB-435
# HL-60(TB) leukemia = tested on: HL-60(TB) leukemia
# MDA-N = tested on: MDA-N
# ACHN renal = tested on: ACHN renal
# OVCAR-4 ovarian = tested on: OVCAR-4 ovarian
# PC-3 prostate = tested on: PC-3 prostate
# K-562 leukemia = tested on: K-562 leukemia
# UO-31 renal = tested on: UO-31 renal
# LOX IMVI melanoma = tested on: LOX IMVI melanoma
# KM12 colon = tested on: KM12 colon
# BT-549 breast = tested on: BT-549 breast
# CAKI-1 renal = tested on: CAKI-1 renal
# RPMI-8226 leukemia = tested on: RPMI-8226 leukemia
# SNB-19 CNS = tested on: SNB-19 CNS
# SK-OV-3 ovarian = tested on: SK-OV-3 ovarian
# OVCAR-5 ovarian = tested on: OVCAR-5 ovarian
# UACC-62 melanoma = tested on: UACC-62 melanoma
# SK-MEL-2 melanoma = tested on: SK-MEL-2 melanoma
# SF-539 CNS = tested on: SF-539 CNS
# UACC-257 melanoma = tested on: UACC-257 melanoma
# KM20L2 colon = tested on: KM20L2 colon
# SF-295 CNS = tested on: SF-295 CNS
# HCT-116 colon = tested on: HCT-116 colon
# EKVX NSCLC = tested on: EKVX NSCLC
# MDA-MB-231 breast = tested on: MDA-MB-231 breast
# SK-MEL-5 melanoma = tested on: SK-MEL-5 melanoma
# SW-620 colon = tested on: SW-620 colon
# MOLT-4 leukemia = tested on: MOLT-4 leukemia
smiles,measurement,setting,value
NC(N)=NS(=O)(=O)c1ccc(NCc2c3ccccc3nc3ccccc23)cc1,TGI,HT29 colon,> 100 µM
same,TGI,SNB-78 CNS,> 66.9 µM
same,TGI,COLO 205 colon,> 100 µM
same,TGI,NCI-H460 lung,19.2 µM
same,TGI,IGROV1 ovarian,65 µM
same,TGI,SK-MEL-28 melanoma,> 97.1 µM
same,TGI,DU-145 prostate,> 100 µM
same,TGI,OVCAR-3 ovarian,49.6 µM
same,TGI,786-0 renal,9.65 µM
same,TGI,RXF 393 renal,42.1 µM
same,TGI,T-47D breast,23.5 µM
same,TGI,DMS 273 small cell lung,> 61.6 µM
same,TGI,DMS 114 small cell lung,16 µM
same,TGI,DLD-1 colon,> 77 µM
same,TGI,A498 renal,12 µM
same,TGI,A549 NSCLC,> 100 µM
same,TGI,U251 CNS,10.9 µM
same,TGI,M14 melanoma,64.7 µM
same,TGI,SNB-75 CNS,9.02 µM
same,TGI,MALME-3M melanoma,49.7 µM
same,TGI,SR leukemia,12.6 µM
same,TGI,HCC-2998 colon,66.1 µM
same,TGI,NCI-H226 lung,4.85 µM
same,TGI,HS 578T breast,28.6 µM
same,TGI,MCF7 breast,17.5 µM
same,TGI,LXFL 529 NSCLC,44.3 µM
same,TGI,HCT-15 colon,> 100 µM
same,TGI,SN12C renal,41.3 µM
same,TGI,OVCAR-8 ovarian,53.8 µM
same,TGI,NCI-H522 lung,26.9 µM
same,TGI,HOP-92 NSCLC,9.01 µM
same,TGI,HOP-62 NSCLC,5.92 µM
same,TGI,HOP-18 NSCLC,> 86.8 µM
same,TGI,CCRF-CEM leukemia,9.03 µM
same,TGI,NCI-H23 lung,13.2 µM
same,TGI,M19-MEL melanoma,> 100 µM
same,TGI,SF-268 CNS,23.1 µM
same,TGI,TK-10 renal,> 88 µM
same,TGI,RXF-631 renal,> 70.1 µM
same,TGI,MDA-MB-435,> 100 µM
same,TGI,HL-60(TB) leukemia,10.9 µM
same,TGI,MDA-N,> 100 µM
same,TGI,ACHN renal,30.5 µM
same,TGI,OVCAR-4 ovarian,> 100 µM
same,TGI,PC-3 prostate,> 100 µM
same,TGI,K-562 leukemia,> 93.6 µM
same,TGI,UO-31 renal,87.4 µM
same,TGI,LOX IMVI melanoma,58 µM
same,TGI,KM12 colon,70.1 µM
same,TGI,BT-549 breast,34.3 µM
same,TGI,CAKI-1 renal,69.2 µM
same,TGI,RPMI-8226 leukemia,> 72.5 µM
same,TGI,SNB-19 CNS,20.7 µM
same,TGI,SK-OV-3 ovarian,27.3 µM
same,TGI,OVCAR-5 ovarian,> 100 µM
same,TGI,UACC-62 melanoma,35.2 µM
same,TGI,SK-MEL-2 melanoma,> 67 µM
same,TGI,SF-539 CNS,4.72 µM
same,TGI,UACC-257 melanoma,> 69.3 µM
same,TGI,KM20L2 colon,> 100 µM
same,TGI,SF-295 CNS,22 µM
same,TGI,HCT-116 colon,56.2 µM
same,TGI,EKVX NSCLC,> 71.7 µM
same,TGI,MDA-MB-231 breast,> 100 µM
same,TGI,SK-MEL-5 melanoma,62.8 µM
same,TGI,SW-620 colon,> 87.7 µM
same,TGI,MOLT-4 leukemia,> 16.5 µM
